Results taken from PubChem BioAssay AID330 (DTP/NCI, 2004).
Where “and” joins values, the source holds several entries; their conditions need not be identical. Equal entries are not always repeated. Inconclusive results and toxic doses are left out. The calls were made as follows: active = survival T/C of 150% or more; inactive = T/C below 125% in these data.

System: P388 leukemia ip, CD2F1 mice, survival T/C
Test: NCI In Vivo Anticancer Drug Screen. Data for tumor model P388 Leukemia (intraperitoneal) in CD2F1 (CDF1) mice
Details: endpoint: median survival time, higher = longer survival
Outline: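 Mice carrying the transplanted tumor received test compound or vehicle. Survival was recorded in each group, and the value is the treated-group measurement divided by that of the vehicle-treated control group.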

[1] = dose: 12.5 mg/kg/injection, schedule: Q01DX009 (ip), vehicle: water
[2] = dose: 25.0 mg/kg/injection, schedule: Q01DX009 (ip), vehicle: water
[3] = dose: 25.0 mg/kg/injection, schedule: Q01DX005 (ip), vehicle: saline with Tween-80
[4] = dose: 50.0 mg/kg/injection, schedule: Q01DX005 (ip), vehicle: saline with Tween-80
[5] = dose: 50.0 mg/kg/injection, schedule: Q01DX009 (ip), vehicle: saline with Tween-80
[6] = dose: 100.0 mg/kg/injection, schedule: Q01DX009 (ip), vehicle: saline with Tween-80
[7] = dose: 200.0 mg/kg/injection, schedule: Q01DX009 (ip), vehicle: saline with Tween-80

Measured: T/C

Cc1ccc(C(=O)C=C(C(F)(F)F)C(F)(F)F)cc1
inactive: dose: 6.25 mg/kg/injection, schedule: Q01DX009 (ip), vehicle: saline 100 % of control | dose: 6.25 mg/kg/injection, schedule: Q04DX003 (ip), vehicle: saline 95 % of control | dose: 12.5 mg/kg/injection, schedule: Q01DX009 (ip), vehicle: saline 100 % of control | dose: 12.5 mg/kg/injection, schedule: Q04DX003 (ip), vehicle: saline 95 % of control | dose: 25.0 mg/kg/injection, schedule: Q01DX009 (ip), vehicle: saline 109 % of control | dose: 25.0 mg/kg/injection, schedule: Q04DX003 (ip), vehicle: saline 104 % of control

O=C1CCNN1c1ccccc1
inactive: [1] 100 % of control | [2] 103 % of control | dose: 50.0 mg/kg/injection, schedule: Q01DX009 (ip), vehicle: water 100 % of control | dose: 100.0 mg/kg/injection, schedule: Q01DX009 (ip), vehicle: water 103 % of control | dose: 200.0 mg/kg/injection, schedule: Q01DX009 (ip), vehicle: water 106 % of control

CC(=O)Nc1c(Cl)cc(Cl)c2c1Cc1cc(Cl)ccc1-2
inactive: dose: 50.0 mg/kg/injection, schedule: Q01DX005 (ip), vehicle: Klucel (hydroxypropylcellulose) (HPC) 88 % of control | dose: 100.0 mg/kg/injection, schedule: Q01DX005 (ip), vehicle: Klucel (hydroxypropylcellulose) (HPC) 94 % of control | dose: 200.0 mg/kg/injection, schedule: Q01DX005 (ip), vehicle: Klucel (hydroxypropylcellulose) (HPC) 112 % of control

Cc1cccc(C2=NCCN2)c1C
inactive: dose: 5.0 mg/kg/injection, schedule: Q04DX003 (ip), vehicle: saline with Tween-80 100 % of control | dose: 10.0 mg/kg/injection, schedule: Q04DX003 (ip), vehicle: saline with Tween-80 100 % of control | dose: 20.0 mg/kg/injection, schedule: Q04DX003 (ip), vehicle: saline with Tween-80 100 % of control

CC(O)C(O)C(=O)O (stereo not given)
inactive: dose: 50.0 mg/kg/injection, schedule: Q01DX009 (ip), vehicle: saline 94 % of control | dose: 100.0 mg/kg/injection, schedule: Q01DX009 (ip), vehicle: saline 93 % of control | dose: 200.0 mg/kg/injection, schedule: Q01DX009 (ip), vehicle: saline 91 % of control | dose: 400.0 mg/kg/injection, schedule: Q01DX009 (ip), vehicle: saline 92 % of control

COc1c(CCl)cc(-c2sc3ccccc3c(=O)c2CCl)cc1CCl
inactive: [3] 106 % of control and 93 % of control | [4] 100 % of control and 114 % of control and 97 % of control | dose: 100.0 mg/kg/injection, schedule: Q01DX005 (ip), vehicle: saline with Tween-80 100 % of control and 106 % of control | dose: 200.0 mg/kg/injection, schedule: Q01DX005 (ip), vehicle: saline with Tween-80 108 % of control and 124 % of control

Cc1cc(C)c2c(=O)n(C)c(=O)n(C)c2n1
inactive: [5] 89 % of control | [6] 94 % of control | [7] 103 % of control

O=C1COCC(=O)OCCOCCOCCOCCO1
inactive: dose: 100.0 mg/kg/injection, schedule: Q04DX003 (ip), vehicle: Klucel (hydroxypropylcellulose) (HPC) 99 % of control | dose: 200.0 mg/kg/injection, schedule: Q04DX003 (ip), vehicle: Klucel (hydroxypropylcellulose) (HPC) 102 % of control | dose: 400.0 mg/kg/injection, schedule: Q04DX003 (ip), vehicle: Klucel (hydroxypropylcellulose) (HPC) 99 % of control

CC1CCC(C(C)C)C(OC(=O)c2cccc[n+]2C)C1 (stereo not given)
inactive: dose: 3.75 mg/kg/injection, schedule: Q01DX005 (ip), vehicle: saline 107 % of control | dose: 7.5 mg/kg/injection, schedule: Q01DX005 (ip), vehicle: saline 103 % of control | dose: 15.0 mg/kg/injection, schedule: Q01DX005 (ip), vehicle: saline 110 % of control | dose: 30.0 mg/kg/injection, schedule: Q01DX005 (ip), vehicle: saline 104 % of control and 119 % of control

C=CCSc1nc(-c2ccc(Cl)cc2)c(C#N)c(=O)[nH]1
inactive: dose: 100.0 mg/kg/injection, schedule: Q01DX001 (ip), vehicle: saline with Tween-80 100 % of control | dose: 200.0 mg/kg/injection, schedule: Q01DX001 (ip), vehicle: saline with Tween-80 97 % of control | dose: 400.0 mg/kg/injection, schedule: Q01DX001 (ip), vehicle: saline with Tween-80 92 % of control

COC(=O)c1nc(=S)[nH]c(C(=O)OC)c1C(=O)c1ccc2ccccc2c1
inactive: dose: 60.0 mg/kg/injection, schedule: Q01DX005 (ip), vehicle: Klucel + Tween-80 94 % of control | dose: 120.0 mg/kg/injection, schedule: Q01DX005 (ip), vehicle: Klucel + Tween-80 95 % of control | dose: 240.0 mg/kg/injection, schedule: Q01DX005 (ip), vehicle: Klucel + Tween-80 95 % of control

O=C(Cn1ccc(O)cc1=O)N1CCOCC1
inactive: dose: 100.0 mg/kg/injection, schedule: Q04DX003 (ip), vehicle: water 95 % of control | dose: 200.0 mg/kg/injection, schedule: Q04DX003 (ip), vehicle: water 90 % of control | dose: 400.0 mg/kg/injection, schedule: Q04DX003 (ip), vehicle: water 100 % of control

O=C(O)C1=C(/C=C/Cl)CC1
inactive: [5] 102 % of control | [6] 96 % of control | [7] 99 % of control

C=C1C2CCC3C(CCC4C35CCC[C@]4(C)CN3CCO[C@H]35)(C2)[C@@H]1O (stereo not given in full)
inactive: dose: 4.0 mg/kg/injection, schedule: Q01DX009 (ip), vehicle: Klucel (hydroxypropylcellulose) (HPC) 108 % of control | dose: 8.0 mg/kg/injection, schedule: Q01DX009 (ip), vehicle: Klucel (hydroxypropylcellulose) (HPC) 110 % of control | dose: 16.0 mg/kg/injection, schedule: Q01DX009 (ip), vehicle: Klucel (hydroxypropylcellulose) (HPC) 94 % of control | dose: 32.0 mg/kg/injection, schedule: Q01DX009 (ip), vehicle: Klucel (hydroxypropylcellulose) (HPC) 99 % of control

S=c1oc2cccc3c2n1CCC3
inactive: dose: 100.0 mg/kg/injection, schedule: Q04DX003 (ip), vehicle: saline with Tween-80 95 % of control | dose: 200.0 mg/kg/injection, schedule: Q04DX003 (ip), vehicle: saline with Tween-80 104 % of control | dose: 400.0 mg/kg/injection, schedule: Q04DX003 (ip), vehicle: saline with Tween-80 100 % of control

Nc1cc(=O)[nH]c(=S)n1-c1ccccn1
inactive: dose: 75.0 mg/kg/injection, schedule: Q01DX001 (ip), vehicle: saline with Tween-80 104 % of control | dose: 150.0 mg/kg/injection, schedule: Q01DX001 (ip), vehicle: saline with Tween-80 100 % of control | dose: 300.0 mg/kg/injection, schedule: Q01DX001 (ip), vehicle: saline with Tween-80 104 % of control

C/C(=N\Nc1cc(C)c2ccccc2n1)c1ccccn1
inactive: dose: 12.5 mg/kg/injection, schedule: Q01DX005 (ip), vehicle: saline with Tween-80 103 % of control | [3] 103 % of control | [4] 102 % of control and 115 % of control

Cc1ccc2c(c1)C(O)(CC(=O)c1ccccn1)C(=O)N2 (stereo not given)
inactive: dose: 60.0 mg/kg/injection, schedule: Q01DX005 (ip), vehicle: Klucel (hydroxypropylcellulose) (HPC) 104 % of control | dose: 120.0 mg/kg/injection, schedule: Q01DX005 (ip), vehicle: Klucel (hydroxypropylcellulose) (HPC) 97 % of control | dose: 240.0 mg/kg/injection, schedule: Q01DX005 (ip), vehicle: Klucel (hydroxypropylcellulose) (HPC) 104 % of control

COc1ccc2c(c1)N(C(=O)CN1CCN(C)CC1)c1ccccc1S2
inactive: dose: 25.0 mg/kg/injection, schedule: Q04DX002 (ip), vehicle: saline 99 % of control | dose: 50.0 mg/kg/injection, schedule: Q04DX002 (ip), vehicle: saline 102 % of control | dose: 100.0 mg/kg/injection, schedule: Q04DX002 (ip), vehicle: saline with Tween-80 100 % of control | dose: 100.0 mg/kg/injection, schedule: Q04DX002 (ip), vehicle: saline 99 % of control

COC(C)(C)O/N=C(\C[n+]1ccccc1)c1ccccc1
inactive: dose: 3.13 mg/kg/injection, schedule: Q01DX009 (ip), vehicle: water 100 % of control | dose: 6.25 mg/kg/injection, schedule: Q01DX009 (ip), vehicle: water 104 % of control | [1] 114 % of control | [2] 105 % of control

COC(=O)c1nc(N)nc(C(=O)OC)c1C(=O)c1ccc(Cl)cc1Cl
inactive: dose: 60.0 mg/kg/injection, schedule: Q01DX005 (ip), vehicle: saline with Tween-80 95 % of control | dose: 120.0 mg/kg/injection, schedule: Q01DX005 (ip), vehicle: saline with Tween-80 100 % of control

COC(=O)/C(=C\c1ccncc1)c1cccc2ccccc12
inactive: dose: 25.0 mg/kg/injection, schedule: Q01DX009 (ip), vehicle: saline with Tween-80 101 % of control | [5] 98 % of control | [6] 104 % of control | [7] 99 % of control

O=C1CCC(=O)N2c3ccccc3-c3ccccc3N12
inactive: [5] 95 % of control | [6] 93 % of control | [7] 93 % of control
